Test results taken from patent publication US11779602B2, “Methods of use for CAR T cells” (ENDOCYTE, INC., priority 2018, dated 2023).

How the values were obtained:
MDA-MB-231 tumors = assay: Dietary folate effect on antitumor activity and CRS, MDA-MB-231 tumors in NSG mice; format: in vivo
Experimental: To study the effect of high dietary folate (FIGS. 63A-K), two sets of NSG mice were placed on either a FA-replete diet (4 mg/kg, Envigo, Indianapolis, Ind.) or a FA-deficient diet (TestDiet, St. Louis, Mo.) upon arrival. On day 0, both sets of the mice received ˜10 million of the same “clinical facsimile” CAR-T cells followed by no EC17 or EC17 SIW at 500 nmol/kg starting on day 3. On the first day of EC17 administration, MDA-MB-231 tumors size averaged around ˜549±184 mm^3 (280-918 mm^3) in FA-replete mice, and ˜559±165 mm^3 (356-961 mm^3) in FA-deficient mice.
Previously, it was shown that administration of FA or a FA ligand helped reduce the severity of CRS in MDA-MB-231 tumor-bearing mice. To test the long-term effect of dietary folate, mice were maintained on defined diets for ˜73 days and used when their tumors reached ˜549±184 mm^3 (280-918 mm^3) in FA-replete mice, and ˜559±165 mm^3 (356-961 mm^3) in FA-deficient mice (FIGS. 63A-K).
Since we started MDA-MB-231 tumors at larger sizes than previous studies, tumor regression due to alloreactivity at this 10-million “clinical facsimile” CAR-T cell dose was not apparent (FIGS. 63A and 63C).
Using anti-human EGFR (clone Hu1) to identify MDA-MB-231 cancer cells within mouse tumor masses after an enzymatic digestion, we analyzed FRα protein expression (clone LK26) in three tumors recovered from mice on FA-replete diet that experienced a relapse despite continuing EC17 treatment. By flow cytometric detection, EGFR+ cancer cells isolated from the smallest tumor (21 mg) expressed FRα, while EGFR+ cancer cells isolated from the two larger tumors (90 mg and 363 mg) had completely lost their FRα expression (FIGS. 63I-K). Using the quantitative radioligand binding assay with ^3H-FA, the loss of functional FR levels on tissue homogenates obtained from these tumors was confirmed (˜2.1 pmol/mg binding potential versus ˜103 pmol/mg in tumors from untreated animals). Therefore, FA-deficiency may lead to enhanced activity and CRS toxicity; while non-physiological FA intake prevents CRS and continuous consumption may lead to reduced activity.

[1] = test system: target cells expressing surface folate receptor (OV90, SKOV3, IGROV1, HOS-FRα, MDA-MB-231); assay: Two day co-culture target cell kill assay (Annexin V); format: cell-based, human; details: 100 nM EC17 30 min pre-treatment, E:T 1:1, two days
Experimental: On day −1, 100,000 target cells were plated in 2 ml of growth media per well of a 12-well tissue culture plate to allow target cells to adhere and recover. On day 0, wells which received EC17 bridge molecule were treated with EC17 at 100 nM for 30 min in the tissue culture incubator. Afterwards, all media was washed off and replaced with fresh growth media free of folate and EC17. During the EC17 incubation, T cells were harvested, counted and after EC17 treatment was completed, 100,000 E2 CAR T cells were directly added onto each well of target cells in a total of 3 ml of growth media at a ratio of 1:1 (E:T) and incubated for both 1 and 2 days under standard tissue culture humidified conditions of 37° C. at 5% CO2. One day co-culture conditions were used to assay E2 CAR T cell activation by target cells and two-day incubation was used to assay target cell death. […]
To confirm that E2 CAR T cell activation also translates to successful killing of the target cells we performed a two-day co-culture assay then looked at target cell (EGFR-CD3-) events via flow cytometry and determined the percentage of target cell staining with the apoptotic surface marker, Annexin V stain. […]

In the case of `NC1=NC2N=CC(CNc3ccc(C(=O)N[C@@H](CCC(=O)NCCNC(=S)Nc4ccc(-c5c6ccc(=O)cc-6oc6cc(O)ccc56)c(C(=O)O)c4)C(=O)O)cc3)=NC2C(=O)N1` (some centres unmarked) [EC17, FA-(γ)-ethylenediamine-FITC], the “CD3ε+EGFRt+ CAR-T cells in blood” value (MDA-MB-231 tumors; FA-deficient diet, day 52) is reported as 1.6-20.4×10^4 per 100 μL blood, the CRS grade (MDA-MB-231 tumors; FA-deficient diet, subsequent EC17 doses) is reported as 2-3 grade and the “CD3ε+EGFRt+ CAR-T cells in blood” value (MDA-MB-231 tumors; FA-replete diet, day 59) is reported as 0.027-4.3×10^3 per 100 μL blood. For the same compound, the CRS (MDA-MB-231 tumors; FA-replete diet, ~10 million CAR-T cells, EC17 500 nmol/kg weekly) was “did not show symptoms of CRS” and the “requirement of EC17 binding for target cell kill” value [1] was “required for cell kill”.
